Here are results for 11 molecules from US6500853B1, “Inhibitors of phospholipase enzymes” (Genetics Institute, LLC, priority 1998, dated 2002).

The term inhibition denotes the drop in the measured response relative to a control, in per cent.

Assay [1] has as its system Rat Carrageenan-Induced Footpad Edema. The experiment in a line: Rat Carrageenan-Induced Footpad Edema Test. The conditions noted are these: footpad volume 3 hours after carrageenan; for inhibition in vivo at 5 mg/kg: iv. Type of assay: in vivo, male Sprague Dawley rats. A general note: The carrageenan paw model is a standard test of acute inflammation.
A further assay deals with T1, cPLA2 (Homo sapiens, UniProt P47712).
T1 sequence (P47712 1-749): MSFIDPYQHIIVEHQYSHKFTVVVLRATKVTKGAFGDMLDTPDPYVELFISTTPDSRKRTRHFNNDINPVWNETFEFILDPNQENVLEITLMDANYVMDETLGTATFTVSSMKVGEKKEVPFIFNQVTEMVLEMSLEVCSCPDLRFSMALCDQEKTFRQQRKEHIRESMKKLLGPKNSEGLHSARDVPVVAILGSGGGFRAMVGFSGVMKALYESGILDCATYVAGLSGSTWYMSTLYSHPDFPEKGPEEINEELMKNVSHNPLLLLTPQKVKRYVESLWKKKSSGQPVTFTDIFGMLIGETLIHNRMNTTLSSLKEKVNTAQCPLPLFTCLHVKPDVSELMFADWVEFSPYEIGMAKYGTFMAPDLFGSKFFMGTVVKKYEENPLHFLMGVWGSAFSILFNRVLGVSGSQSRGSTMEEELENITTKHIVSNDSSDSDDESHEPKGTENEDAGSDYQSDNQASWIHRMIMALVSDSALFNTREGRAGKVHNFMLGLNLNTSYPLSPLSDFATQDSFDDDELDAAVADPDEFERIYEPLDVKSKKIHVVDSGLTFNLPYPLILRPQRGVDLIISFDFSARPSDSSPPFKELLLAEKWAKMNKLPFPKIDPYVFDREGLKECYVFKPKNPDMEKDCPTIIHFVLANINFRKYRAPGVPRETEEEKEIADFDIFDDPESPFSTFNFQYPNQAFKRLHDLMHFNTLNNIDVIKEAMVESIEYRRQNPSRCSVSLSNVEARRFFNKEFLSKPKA
The experiment in a line: Coumarin Assay (cPLA2 inhibition). Type of assay: biochemical. The essentials:
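Percent inhibition at the stated concentration, from the rate of 460 nm emission rise (360 nm excitation) per minute. Reaction started by adding 4 μg enzyme to compound and 60 μM 7-hydroxycoumarinyl 6-heptenoate in Hepes buffer pH 7.5 with 1 mM EDTA.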

Setting [2] is: Rattus norvegicus, 3 h, IV, 5 mg/Kg, read-out: PERCENT INHIBITION
Where [3] appears, read: CONCENTRATION 2.5 micromolar, read-out: PERCENT INHIBITION @.
The mark [4] stands for this setting: Rattus norvegicus, po, 3 h, PO, 2 mg/Kg, read-out: PERCENT INHIBITION
Setting [5] is: Rattus norvegicus, po, 3 h, PO, 10 mg/Kg, read-out: PERCENT INHIBITION

Regarding `COc1cc(C(=O)O)ccc1Cc1cn(C(C)C)c2ccc(NC(=O)OC3CCCC3)cc12` [Example 7, 4-[(5-{[(cylopentyloxy)carbonyl]amino}-1-isopropyl-1H-indol-3yl)methyl]-3-methoxybenzoic acid], the “PERCENT INHIBITION” value in assay [1] (IV, 5 mg/Kg) is listed as −0.65%. Further, the “PERCENT INHIBITION @” value at cPLA2 (CONCENTRATION 50 micromolar) is on record as 11%; on cPLA2 (CONCENTRATION 235 micromolar), 50%.
For `O=C(Nc1ccc2c(c1)c(Cc1ccc(C(=O)NS(=O)(=O)C(F)(F)F)cc1)cn2C(c1ccccc1)c1ccccc1)OC1CCCC1` [Example 54], the “PERCENT INHIBITION” value in assay [1] (PO, 2 mg/Kg) is 2.47%; in assay [1] (PO, 10 mg/Kg) it was 14.29%. Besides, the “PERCENT INHIBITION @” value on cPLA2 (CONCENTRATION 2.8 micromolar) and on cPLA2 (CONCENTRATION 3.9 micromolar) was 50% in each case.
On to `COc1cc(C(=O)NS(=O)(=O)C(F)(F)F)ccc1Cc1cn(C(c2ccccc2)c2ccccc2)c2ccc(NC(=O)C3CCCC3)cc12` [Example 40, N-{1-benzhydryl-3-[2-methoxy-4-({[(trifluoromethyl)sulfonyl]amino}carbonyl)benzyl]-1H-indol-5-yl}cyclopentanecarboxamide], for which the inhibition in vivo at 5 mg/kg in assay [1] (setting [2]) was 8.21%. Also, the “PERCENT INHIBITION @” value on cPLA2 (CONCENTRATION 2.5 micromolar) is on record as 55%. Also, at cPLA2 (setting [3]), the inhibition at 2.5 µM is 50%. For the same molecule, on cPLA2 (CONCENTRATION 3 micromolar, read-out: PERCENT INHIBITION @), the inhibition at 3 µM turned out to be 50%. Besides, the inhibition at 3.6 µM at cPLA2 (CONCENTRATION 3.6 micromolar, read-out: PERCENT INHIBITION @) is 50%.
As for `CS(=O)(=O)NC(=O)CCc1cn(C(c2ccccc2)c2ccccc2)c2ccc(NC(=O)C3CCCC3)cc12` [Example 85, N-(1-benzhydryl-3-{3-[(methylsulfonyl)amino]-3-oxopropyl}-1H-indol-5-yl)cyclopentanecarboxamide], the inhibition in vivo at 5 mg/kg in assay [1] (setting [2]) was determined as 7.13%. At cPLA2 (CONCENTRATION 100 micromolar, read-out: PERCENT INHIBITION @), the inhibition at 100 µM is 31%. Moreover, the inhibition at 200 µM at cPLA2 (CONCENTRATION 200 micromolar, read-out: PERCENT INHIBITION @) was found to be 50%.
As to `Cc1ccc(S(=O)(=O)NC(=O)c2cccc(NC(=O)C(=O)c3cn(Cc4ccc(Cc5ccccc5)cc4)c4ccc(OCc5ccccc5)cc34)c2)cc1` [Example 76, 2-[1-(4-benzylbenzyl)-5-(benzyloxy)-1H-indol-3-yl]-N-[3-({[(4-methylphenyl)sulfonyl]amino}carbonyl)phenyl]-2-oxoacetamide], the inhibition in vivo at 5 mg/kg in assay [1] (setting [2]) came out at 14.8%. Further, at cPLA2 (CONCENTRATION 4 micromolar, read-out: PERCENT INHIBITION @), the inhibition at 4 µM turned out to be 50%.
As to `COc1cc(C(=O)O)ccc1Cc1cn(C(c2ccccc2)c2ccccc2)c2ccc(Br)cc12` [Example 13, 4-[(1-benzhydryl-5-bromo-1H-indol-3-yl)methyl]-3-methoxybenzoic acid], the inhibition in vivo at 2 mg/kg in assay [1] (setting [4]) stood at 26%. Besides, in assay [1] (setting [5]), the inhibition in vivo at 10 mg/kg amounted to 23.6%. In addition, the inhibition at 0.39 µM on cPLA2 (CONCENTRATION 0.39 micromolar, read-out: PERCENT INHIBITION @) was 50%. The inhibition at 0.4 µM on cPLA2 (CONCENTRATION 0.4 micromolar, read-out: PERCENT INHIBITION @) was determined as 50%. For the same molecule, the inhibition at 0.48 µM at cPLA2 (CONCENTRATION 0.48 micromolar, read-out: PERCENT INHIBITION @) was 50%. Also, the inhibition at 0.55 µM at cPLA2 (CONCENTRATION 0.55 micromolar, read-out: PERCENT INHIBITION @) is 50%. In addition, the inhibition at 0.6 µM on cPLA2 (CONCENTRATION 0.6 micromolar, read-out: PERCENT INHIBITION @) amounted to 50%. For the same molecule, the inhibition at 0.65 µM at cPLA2 (CONCENTRATION 0.65 micromolar, read-out: PERCENT INHIBITION @) was determined as 50%. At cPLA2 (CONCENTRATION 0.7 micromolar, read-out: PERCENT INHIBITION @), the inhibition at 0.7 µM is 50%. Besides, on cPLA2 (CONCENTRATION 0.75 micromolar, read-out: PERCENT INHIBITION @), the inhibition at 0.75 µM was 50%. Further, the inhibition at 0.95 µM on cPLA2 (CONCENTRATION 0.95 micromolar, read-out: PERCENT INHIBITION @) stood at 50%. For the same molecule, the inhibition at 2.5 µM on cPLA2 (setting [3]) is 73%. Also, the inhibition at 6.25 µM on cPLA2 (CONCENTRATION 6.25 micromolar, read-out: PERCENT INHIBITION @) is 81%.
On to `COc1cc(C(=O)NS(=O)(=O)C(F)(F)F)ccc1Cc1cn(C(c2ccccc2)c2ccccc2)c2ccc(NS(C)(=O)=O)cc12` [Example 41, N-[4-({1-benzhydryl-5-[(methylsulfonyl)amino]-1H-indol-3-yl}methyl)-3-methoxybenzoyl](trifluoro)methanesulfonamide], for which, in assay [1] (setting [2]), the inhibition in vivo at 5 mg/kg came to 10.1%. Besides, the inhibition at 2.5 µM on cPLA2 (setting [3]) came to 50%. Besides, the inhibition at 3.8 µM at cPLA2 (CONCENTRATION 3.8 micromolar, read-out: PERCENT INHIBITION @) turned out to be 50%. Also, the inhibition at 4.3 µM at cPLA2 (CONCENTRATION 4.3 micromolar, read-out: PERCENT INHIBITION @) was determined as 50%. Besides, the inhibition at 5 µM at cPLA2 (CONCENTRATION 5 micromolar, read-out: PERCENT INHIBITION @) worked out at 50%.
As for `COc1cc(C(=O)O)ccc1Cc1cn(C(c2ccccc2)c2ccccc2)c2ccc(NC(=O)C3CCCC3)cc12` [Example 11, 4-({1-benzhydryl-5-[(cyclopentylcarbonyl)amino]-1H-indol-3-yl}methyl)-3-methoxybenzoic acid], the inhibition in vivo at 5 mg/kg in assay [1] (setting [2]) came to 14%. Also, at cPLA2 (CONCENTRATION 10 micromolar, read-out: PERCENT INHIBITION @), the inhibition at 10 µM came out at 42%. For the same molecule, the inhibition at 12 µM on cPLA2 (CONCENTRATION 12 micromolar, read-out: PERCENT INHIBITION @) was 50%. Also, the inhibition at 12.5 µM at cPLA2 (CONCENTRATION 12.5 micromolar, read-out: PERCENT INHIBITION @) came out at 52%. For the same molecule, the inhibition at 20 µM at cPLA2 (CONCENTRATION 20 micromolar, read-out: PERCENT INHIBITION @) was 36%. For the same molecule, the inhibition at 27.5 µM at cPLA2 (CONCENTRATION 27.5 micromolar, read-out: PERCENT INHIBITION @) came out at 50%. Further, the inhibition at 30 µM on cPLA2 (CONCENTRATION 30 micromolar, read-out: PERCENT INHIBITION @) was found to be 50%. At cPLA2 (CONCENTRATION 37 micromolar, read-out: PERCENT INHIBITION @), the inhibition at 37 µM was 50%.
In the case of `COc1cc(C(=O)O)ccc1Cc1cn(C(c2ccccc2)c2ccccc2)c2ccc(NS(=O)(=O)c3ccccc3C)cc12` [Example 94, 4-[(1-benzhydryl-5-{[(2-methylphenyl)sulfonyl]amino}-1H-indol-3-yl)methyl]-3-methoxybenzoic acid], the inhibition in vivo at 2 mg/kg in assay [1] (setting [4]) came out at 19%. The inhibition in vivo at 3 mg/kg in assay [1] (Rattus norvegicus, po, 3 h, PO, 3 mg/Kg, read-out: PERCENT INHIBITION) came to 3.13%. Further, at cPLA2 (CONCENTRATION 7 micromolar, read-out: PERCENT INHIBITION @), the inhibition at 7 µM came to 50%. Moreover, the inhibition at 7.5 µM at cPLA2 (CONCENTRATION 7.5 micromolar, read-out: PERCENT INHIBITION @) stood at 50%.
With `Cc1ccccc1S(=O)(=O)NC(=O)c1ccc(Cc2cn(C(c3ccccc3)c3ccccc3)c3ccc(Br)cc23)cc1` [Example 57, N-{4-[(1-benzhydryl-5-bromo-1H-indol-3-yl)methyl]benzoyl}-2-methylbenzenesulfonamide], the inhibition in vivo at 2 mg/kg in assay [1] (setting [4]) was 10.4%. The inhibition in vivo at 10 mg/kg in assay [1] (setting [5]) stood at 20.7%. The inhibition at 1.05 µM on cPLA2 (CONCENTRATION 1.05 micromolar, read-out: PERCENT INHIBITION @) stood at 50%. Moreover, the inhibition at 1.38 µM on cPLA2 (CONCENTRATION 1.38 micromolar, read-out: PERCENT INHIBITION @) amounted to 50%. For the same molecule, the inhibition at 1.4 µM at cPLA2 (CONCENTRATION 1.4 micromolar, read-out: PERCENT INHIBITION @) amounted to 50%.
Regarding `Cc1ccccc1S(=O)(=O)NC(=O)c1ccc(Cc2cn(C(c3ccccc3)c3ccccc3)c3ccc(NC(=O)OC4CCCC4)cc23)cc1` [Example 53, cyclopentyl N-{1-benzhydryl-3-[4-({[(2-methylphenyl)sulfonyl]1amino}carbonyl)benzyl]-1H-indol-5-yl}carbamate], the “PERCENT INHIBITION” value is −1.81% in assay [1] (PO, 2 mg/Kg) and 11.35% in assay [1] (PO, 10 mg/Kg). The “PERCENT INHIBITION @” value on cPLA2 (CONCENTRATION 11 micromolar) and at cPLA2 (CONCENTRATION 15.5 micromolar) was 50% in each case.
